{"source": "patent US20110041725A1", "about": "“ANTICOAGULANTS AS ANTIFOULING AGENTS” (priority 2007, published 2011)", "key": {"[1]": {"test_system": "barnacle cement polymerization", "test": "Barnacle cement polymerization in presence of anticoagulants, protein profile by SDS-PAGE", "format": "biochemical", "conditions": "for inhibition of polymerization of barnacle cement (number and intensity of proteins): 2 μl anticoagulant added to 1 μl unpolymerized cement of thick, gummy phenotype barnacle, 2 minutes, versus distilled water", "method": "(§1) FIG. 6. Protein profile for barnacle cement polymerized in the presence of distilled water (control) or one of 5 anticoagulants heparin, warfarin, trypsin inhibitor, EGTA or EDTA. Each peak represents an individual protein. For each treatment, 2 μl of either distilled water or anticoagulant was added to 1 μl unpolymerized cement taken from a thick, gummy phenotype barnacle. Polymerization was allowed to proceed for 2 minutes. Samples were analyzed with SDS-PAGE using a 4-20% acrylamide gel. The gel was stained with Coomassie Blue and analyzed using Scion Image.\nas §1, with “Each” for “FIG. 6. Protein profile for barnacle cement polymerized in the presence of distilled water (control) or one of 5 anticoagulants heparin, warfarin, trypsin inhibitor, EGTA or EDTA. Each”"}, "[2]": {"test_system": "serine proteases active in barnacle cement polymerization", "test": "SDS-PAGE protein signature of unpolymerized barnacle glue with and without heparin", "format": "biochemical", "conditions": "reducing SDS-PAGE, 4-20% acrylamide gel, Coomassie Blue", "method": "Techniques were developed and performed to harvest unpolymerized barnacle cement in microliter quantities. This enabled analysis of the proteins in barnacle cement using SDS-PAGE, which separates proteins based on size. SDS-PAGE provides a protein signature. SDS-PAGE was conducted under reducing conditions on a 4-20% acrylamide gradient gel in the presence and absence of heparin to determine any associated changes in protein signature (See FIG. 10). […] A precast, 4-20% acrylamide gel was used and stained with Coomassie Blue. […] The number of protein bands in the 85-115 kDa range is increased and of particular note, the 24 kDa protein and all the smaller peptides have disappeared in the presence of heparin."}, "barnacles": {"test_system": "barnacles", "test": "Barnacle reattachment assay (removal force)", "format": "in vivo", "method": "A barnacle reattachment assay was performed in the presence and absence of heparin. The barnacle reattachment assay (Rittschof et al., under review) allows for rapid assessment of barnacle adhesive strength. In this assay barnacles are grown on non-toxic silicone substrates. Barnacles are removed from the silicone surface using a hand-held mechanical force gauge. Removed barnacles are then placed on another surface to which they are allowed to reattach for one week. As cement production is continuous throughout a barnacle's life, reattachment is possible and strength of adhesion after one week is nearly identical to initial strength of adhesion (when removed from, and reattached to the same silicone substrate). This assay was utilized to determine if a coating on a surface decreases strength of adhesion by removing a barnacle from silicone and allowing it to reattach to test and control surfaces. Reattachment trials for heparin were conducted by removing a barnacle from a silicone panel and reattaching it to clean glass panels or heparin coated glass panels. […] The reattachment removal force for the barnacles is represented by the gray bars. Barnacles were reattached to glass panels coated with 0 (control), 0.1, 1.0 or 10.0 mg ml^−1 heparin for 7 days. The removal force decreased for all barnacles on heparin treatments. […] This pattern was shown on both heparin coated silicone and heparin coated glass. […] The same group of barnacles was successively reattached to the same treatment for 1, 2, 3 and 4 days (in that order); n=10 barnacles for dH2O and sucrose, n=10 for heparin 1 day, and n=9 for heparin 2, 3 and 4 days. […] Statistical comparisons were not conducted on 2, 3, and 4 day trials as there is a potential for the results to be influenced by previous reattachment trials."}}, "note": "Entries after “also recorded” stand apart in the source; their conditions may differ.", "data": [{"molecule": "CC(=O)CC(c1ccccc1)c1c(O)c2ccccc2oc1=O", "note": "(stereo not drawn) [warfarin]", "values": [{"measurement": "inhibition of polymerization of barnacle cement (number and intensity of proteins)", "setting": "[1]", "result": "effectively inhibit the polymerization of barnacle cement"}]}, {"molecule": "O=C(O)CN(CCN(CC(=O)O)CC(=O)O)CC(=O)O", "note": "[EDTA]", "values": [{"measurement": "inhibition of polymerization of barnacle cement (number and intensity of proteins)", "setting": "[1]", "result": "effectively inhibit the polymerization of barnacle cement; also recorded: inhibited"}]}, {"molecule": "heparin", "values": [{"measurement": "bands smaller than 31 kDa (serine proteases and their peptide products)", "setting": "[2]", "result": "do not appear when heparin is added"}, {"measurement": "protein signature of barnacle glue", "setting": "[2]", "result": "significantly different"}, {"measurement": "mean removal force versus sucrose", "setting": "barnacles; 1 mg ml^-1 coated T2 silicone, 1 day reattachment, p<0.05", "result": "significant difference from the sucrose results"}, {"measurement": "reattachment removal force versus initial removal force", "setting": "barnacles; 10 mg ml^-1 heparin coated glass, 7 days, paired samples t-test p=0.017", "result": "highly significant difference from initial removal force"}, {"measurement": "reattachment removal force", "setting": "barnacles; glass panels coated with 0.1, 1.0 or 10.0 mg ml^-1 heparin, reattached 7 days", "result": "decreased"}, {"measurement": "force required for removal as concentration increases", "setting": "barnacles; heparin 0.1 to 10 mg ml^-1, heparin coated silicone and heparin coated glass", "result": "stepwise decrease"}, {"measurement": "removal force over time reattached", "setting": "barnacles; heparin coated surfaces, reattached 1, 2, 3 and 4 days", "result": "no increase in removal force with increasing time reattached"}, {"measurement": "inhibitory effect on cement polymerization compared with the other anticoagulant compounds tested", "setting": "[1]", "result": "most extensive and consistent inhibitory effect"}, {"measurement": "inhibition of polymerization of barnacle cement (number and intensity of proteins)", "setting": "[1]", "result": "effectively inhibit the polymerization of barnacle cement"}]}, {"molecule": "O=C(O)CN(CCOCCOCCN(CC(=O)O)CC(=O)O)CC(=O)O", "note": "[EGTA]", "values": [{"measurement": "inhibition of polymerization of barnacle cement (number and intensity of proteins)", "setting": "[1]", "result": "effectively inhibit the polymerization of barnacle cement; also recorded: inhibited"}]}]}
